One data set concerns mitochondrial membrane. Briefly: Quantitative mass spectrometry of AMT peptide conjugates permeating the mitochondrial membrane. The data set is classed as cell-based. As to conditions: relative quantification of conjugate at the target site. The procedure:
Quantitative mass spectrometry studies were used to compare the effectiveness of several AMT peptide conjugates in permeating the mitochondrial membrane, specifically XJB-5-234, XJB-5-133, XJB-5-241, and XJB-5-127. The fmole/10 μM mitochondrial protein ratio provides a relative quantification of conjugate concentration at the target site.

For data set [1], the system named is KM101 human marrow stromal cells. The data set is described as follows: Irradiation survival of KM101 cells with JP4-039. In kind it is cell-based. As to conditions: 10 μM. The procedure:
KM101 cells were incubated in media alone or in JP4-039 (10 μM) for one hour before irradiation or 24 hours after irradiation. The cells were irradiated to doses ranging from 0 to 6 Gy and plated in 4 well plates. Seven days later the cells were stained with crystal violet and colonies of greater than 50 cells counted. Cells incubated in JP4-039 either before or after irradiation were more radioresistant as shown by an increased shoulder of n=2.3±0.2 or 2.2±0.2, respectively compared to n of 1.1±0.1 for the KM101 cells (p=0.0309 or 0.0386, respectively).

The subject of data set [2] is MEF cells prepared from Ercc1−/− mouse embryos. Briefly: Toxicity of JP4-039 in Ercc1−/− MEF cultures. As to conditions: 48 hours. The data set is classed as cell-based. The procedure: (§1) To assess the therapeutic potential of JP4-039, tests for safety and protective activity were performed. FIGS. 35 and 36 show the results of tests to evaluate whether varying concentrations of JP4-039 produce toxic effects after 48 hours in cultures of MEF cells prepared from Ercc1^−/− or wild-type mouse embryos, respectively.

Data set [3] has as its system mice exposed to total body irradiation. The data set is described as follows: Survival of mice after total body irradiation. In kind it is in vivo, mouse. The procedure:
In FIG. 17A, mice received intraperitoneal injection of 10 mg per kilogram of each of the chemicals indicated in FIG. 5, then 24 hours later received 9.75 Gy total body irradiation according to published methods. Mice were followed for survival according to IACUC regulations. […] (P=0.0008). In FIG. 17B, mice received intraperitoneal injection of JP4-039 either 10 minutes before (square symbols) or 4 hours after (triangle symbols) irradiation with 9.75 Gy.
Groups of 15 mice received intraperitoneal injection of 10 mg. per kilogram of each indicated GS-nitroxide compound or carrier (Cremphora plus alcohol at 1 to 1 ratio, then diluted 1 to 10 in distilled water). Mice received 10 mg per kilogram intra-peritoneal injection 24 hours prior to total body irradiation. Control mice received radiation alone. […] (P=0.0005)

The test system of data set [4] is γ-H2AX in primary MEF cells from Ercc1−/− mice. Briefly: γ-H2AX immunostaining in Ercc1−/− MEFs under oxidative stress. The data set is classed as cell-based, mouse. As to conditions: 1 μM, 48 hours. The protocol: Next, the abilities of these two agents, as well as XJB-5-131 and JP4-039, each at a concentration of 1 μM, were tested for their ability to prevent oxidation-induced DNA double-strand breaks in cell cultures prepared, and oxidatively stressed, as in the preceding paragraph. Treated as well as untreated cells were, after 48 hours of treatment, immunostained for γ-H2AX, a marker of DNA double-strand breaks as well as cellular senescence.

For data set [5], the system named is MEF cells prepared from wild-type mouse embryos. The data set is described as follows: Toxicity of JP4-039 in wild-type MEF cultures. The data set is classed as cell-based. As to conditions: up to 10 μM, 48 hours. The protocol:
as §1

Data set [6] has as its system 32D cl 3 mouse hematopoietic progenitor cell line. The data set is described as follows: Irradiation survival curves of 32D cl 3 cells with JP4-039. In kind it is cell-based. As to conditions: 10 μM. The procedure:
Irradiation survival curves were performed on cells from the 32D cl 3 mouse hematopoietic progenitor cell line, incubated in 10 μM JP4-039 for 1 hour before irradiation, or plated in methylcellulose containing 10 μM […] after irradiation. Cells were irradiated from 0 to 8 Gy, plated in 0.8% methylcellulose containing media, and incubated for 7 days at 37° C. Colonies of greater than 50 cells were counted and data analyzed by linear quadratic and single-hit, multi-target models.

For data set [7], the system named is p16 in primary MEFs from Ercc1−/− mouse embryos. The data set is described as follows: p16 immunofluorescence in Ercc1−/− MEFs under 20% oxygen. In kind it is cell-based. As to conditions: 1 uM, 48 hrs. The protocol:
To test the protective activity of JP4-039, cultures of primary MEFs were prepared from Ercc1^−/− mouse embryos and grown under 20% oxygen (ambient air), which creates oxidative stress in these cells that are hypersensitive to reactive oxygen species. The cells were then either treated with a concentration of 1 uM XJB-5-131, JP4-039, JED-E71-37 or JED-E71-58, or left untreated (media), and then after 48 hrs the level of p16, a marker of irreversible cellular senescence, was measured by immunofluorescence staining.

The test system of data set [8] is MECs. Briefly: Intracellular superoxide generation (DHE flow cytometry) in ActD-treated MECs. In kind it is cell-based, mouse. As to conditions: 10 μM pretreatment; ActD 100 ng/mL. The procedure: Determination of intracellular superoxide radicals. Oxidation-dependent fluorogenic dye, dihydroethidium (“DHE”, Molecular Probes) was used to evaluate intracellular production of superoxide radicals. DHE is cell permeable and, in the presence of superoxide, is oxidized to fluorescent ethidium which intercalates into DNA. The fluorescence of ethidium was measured using a FACscan (Becton-Dickinson, Rutherford, N.J.) flow cytometer, equipped with a 488-nm argon ion laser and supplied with the Cell Quest software. Mean fluorescence intensity from 10,000 cells were acquired using a 585-nm bandpass filter (FL-2 channel).
A general note: A flow cytometer gives signals particle by particle.

The subject of data set [9] is MECs. Briefly: ActD-induced apoptosis in MECs (annexin V, caspase-3, DNA fragmentation). As to conditions: for DNA fragmentation / caspase-3 activation / number of annexin V-positive cells (PS externalization): 10 μM, ActD 100 ng/mL.
Description: The ability of 5a, 5b, and 4-AT to protect cells against apoptosis triggered by actinomycin D (“ActD”) was also tested. MECs were pretreated with 10 μM 4-AT, 5a, or 5b then incubated with ActD at a concentration of 100 ng/mL.
Externalization of PS was analyzed by flow cytometry using an annexin V kit. Cells were harvested by trypsinization at the end of incubation and then stained with annexin V-FITC and propidium iodide (“PS”). Ten thousand cell events were collected on a FACScan flow cytometer. Annexin V-positive and PI-negative cells were considered apoptotic.
Activation of capase-3, a cysteine protease only activated in the execution phase of apoptosis, was determined using an EnzChek capsase-3 assay kit.
These DNA fragments are eluted, stained with propidium iodide and analyzed using flow cytometry. A cell population with decreased DNA content was considered a fraction of apoptotic cells.
The subject of data set [10] is mitochondria of 32D c 13 hemopoietic cells. The data set is described as follows: Mass spectrometry of compounds in mitochondria isolated from 32D cl 3 cells. The data set is classed as cell-based, murine. As to conditions: 100 μM; two hours at 37° C. The procedure: An unconjugated and conjugated NOS antagonist, (AMT, 100 μM) and an unconjugated and conjugated nitroxide derivative (4-amino-TEMPO, 100 μM) were incubated for two hours at 37° C. with 32D c 13 hemopoietic cells.
Following incubation, the cells were lysed and the mitochondria isolated for a mass spectrometry analysis where compounds isolated from mitochondria were identified as Na+ adducts. […] Thus, the targeting peptides successfully direct a NOS antagonist and a nitroxide to the mitochondria.

For data set [11], the system named is irradiated uroepithelial cells. Briefly: NO and peroxynitrite production in irradiated uroepithelial cells. In kind it is cell-based. As to conditions: 4-amino-TEMPO 100 μM, AMT 10 μM; capsaicin evoked; 24 hours after irradiation. The procedure:
Further physiological studies were conducted to determine the effects of peptide-targeted AMT and 4-amino-TEMPO on NO and peroxynitrite production in irradiated uroepithelial cells. The cells were cultured in an 8-well slide chamber for 3 days and then microsensor measurements were taken 24 hours after irradiation.
In cells treated with high-dose conjugated 4-amin-TEMPO (100 μM), peroxynitrite production was decreased by approximately 4-fold.

Data set [12] deals with mouse embryonic cells (MEC). Briefly: EPR-based analysis of integration and reduction of nitroxide Gramicidin S-peptidyl conjugates in MECs. The data set is classed as cell-based. As to conditions: 10 μM, whole cells, cytosol fractions. The procedure: Electron paramagnetic resonance (“EPR”) spectroscopy was used to monitor the cellular delivery of compounds 5a and 5b shown in FIG. 3 in mouse embryonic cells (“MEC”).
The following conditions were used during the EPR-based analysis of the integration and reduction of nitroxide Gramicidin S-peptidyl conjugates in MECs. The MECs at a concentration of 10 million MECs per mL were incubated with 10 μM of 4-AT and compound 5a, respectively. Recovered nitroxide radicals in whole cells, mitochondria, and cytosol fractions were resuspended in phosphate buffer saline (“PBS”) in the presence and absence, respectively, of 2 μM K3Fe(CN)6.

“Also recorded” adds a separate entry of the source. Where a SMILES comes first, the peptide text is derived from it. [ ]: non-standard residue; d: D form. The star is where a group is joined. ξ: configuration not given here. NH(TEMPO-4-yl) = CC1(C)CC(N*)CC(C)(C)N1[O]; Orn = NCCC[C@H](N)C(=O)O; Cbz = O=C(OCc1ccccc1)*; Boc = CC(C)(C)OC(=O)*; ξOrn = NCCCC(N)C(=O)O; X1 = CC1CCN=C(N*)S1

Take `CC(C)C[C@@H](/C=C/[C@H](Cc1ccccc1)C(=O)N1CCC[C@H]1C(=O)N[C@H](C(=O)N[C@@H](CCCNC(=O)OCc1ccccc1)C(=O)NC1=NCCC(C)S1)C(C)C)NC(=O)OC(C)(C)C` (stereo partly drawn) [XJB-5-133, Boc-leu-ψ[(E)-CH═CH]-^DPhe-Pro-Val-Orn(Cbz)-AMT]: the “fmole/10 μM mitochondrial protein” value with mitochondrial membrane is listed as 89.8 fmole/10 μM mitochondrial protein.

Consider `CC(C)C[C@@H](/C=C/CC(=O)NC1CC(C)(C)N([O])C(C)(C)C1)NC(=O)OC(C)(C)C` [JP4-039, TEMPO-4-yl-(S,E)-5-(tert-butoxycarbonylamino)-7-methyloct-3-enamide], for which the “mitigation of irradiation damage” value in data set [1] is listed as “effective mitigator”. Besides, the “change in the Do” value in data set [1] (before or after irradiation) is reported as “no significant change”. Moreover, the “cellular proliferation relative to untreated control cells” value in data set [2] (Ercc1−/− or wild-type MEF) is “enhanced”. Besides, the toxicity entry in [2] (up to 10 μM) and in data set [5] was “no signs of toxicity were observed” each time. In addition, the survival of mice result in data set [3] (9.5 Gy total body irradiation, 10 mg per kilogram intraperitoneal 24 hours prior) was “increases survival”; in [3] (9.75 Gy total body irradiation, 10 mg per kilogram intraperitoneal), “significant increase in survival; also recorded: increases survival”. For the same compound, in data set [4], the “γ-H2AX (oxidation-induced DNA double-strand breaks)” value is “also effective”. Also, the “hematopoietic cell radiation mitigation” value in data set [6] is listed as “effective hematopoietic cell radiation mitigator”. Moreover, the “level of p16” value in data set [7] was “much lower”.

On to `C/C(=C\[C@H](Cc1ccccc1)C(=O)N1CCC[C@H]1C(=O)N[C@H](C(=O)NC(CCCNC(=O)OCc1ccccc1)C(=O)NC1=NCCC(C)S1)C(C)C)[C@H](CC(C)C)NC(=O)OC(C)(C)C` (stereo partly drawn) [XJB-5-241, Boc-Leu-ψ[(E)-C(CH3)═CH]-^DPhe-Pro-Val-Orn(Cbz)-AMT], for which the “fmole/10 μM mitochondrial protein” value with mitochondrial membrane is given as 103.3 fmole/10 μM mitochondrial protein.

`CC(C)C[C@H](NC(=O)OC(C)(C)C)C(=O)N[C@H](Cc1ccccc1)C(=O)N1CCC[C@H]1C(=O)N[C@H](C(=O)N[C@@H](CCCNC(=O)OCc1ccccc1)C(=O)NC1CC(C)(C)N([O])C(C)(C)C1)C(C)C` [5b] (Boc-L[dF]PV[Orn](Cbz)-{NH(TEMPO-4-yl)}): the intracellular superoxide generation result in the data set on MECs [8] is “completely inhibited”. In addition, in the data set on MECs [9], the DNA fragmentation result is given as “prevented DNA fragmentation”, the caspase-3 activation entry was “prevented caspase-3 activation” and the “number of annexin V-positive cells (PS externalization)” value is “reduced the number of annexin V•positive cells”. Moreover, the “protection or cytotoxicity at higher concentration” value in the data set with MECs [9] (concentrations in excess of 10 μM) is on record as “either less protective or exhibited cytotoxicity”.

In the case of `CC1CCN=C(N)S1` (stereo not drawn) [AMT, 2-amino-6-methyl-thiazine], in data set [10], the “permeation of the mitochondrial membrane (MS, Na+ adducts)” value is listed as “do not enter the mitochondria membrane in substantial quantities”. For the same compound, the peroxynitrite formation result in [11] is “comparable amount of peroxynitrite”.

Regarding `CC(C)C[C@H](NC(=O)OC(C)(C)C)C(=O)N[C@H](Cc1ccccc1)C(=O)N1CCC[C@H]1C(=O)N[C@H](C(=O)NC(CCCNC(=O)OCc1ccccc1)C(=O)NC1=NCCC(C)S1)C(C)C` (stereo partly drawn) [XJB-5-127, Boc-Leu-^DPhe-Pro-Val-Orn(Cbz)-AMT] (Boc-L[dF]PV[ξOrn](Cbz)-X1), the “fmole/10 μM mitochondrial protein” value in the data set on mitochondrial membrane is 50.8 fmole/10 μM mitochondrial protein.

Turning to `CC(C)C[C@@H](/C=C/[C@H](Cc1ccccc1)C(=O)N1CCC[C@H]1C(=O)N[C@H](C(=O)N[C@@H](CCCNC(=O)OCc1ccccc1)C(=O)NC1CC(C)(C)N([O])C(C)(C)C1)C(C)C)NC(=O)OC(C)(C)C` [5a], the intracellular superoxide generation result in the data set with MECs [8] is recorded as “completely inhibited”. In addition, in the data set on MECs [9], the DNA fragmentation result is recorded as “prevented DNA fragmentation”, the caspase-3 activation entry is “prevented caspase-3 activation” and the “number of annexin V-positive cells (PS externalization)” value is recorded as “reduced the number of annexin V•positive cells”.

As for `CC1(C)CC(N)CC(C)(C)N1[O]` [4-amino-TEMPO, reference compound], in [10], the “permeation of the mitochondrial membrane (MS, Na+ adducts)” value was “only permeate the mitochondrial membrane with the assistance of the attached GS-derived targeting sequence”. For the same compound, the intracellular superoxide generation result in the data set with MECs [8] is “had no effect”. For the same compound, in the data set on MECs [9] (10 μM / low concentrations), the “protection against ActD-induced apoptosis” value is given as “afforded no protection”. In addition, the peroxynitrite formation entry in data set [11] was “comparable amount of peroxynitrite”. Further, in data set [12], the “EPR signals of nitroxide radicals; integration into cells and mitochondria” value is listed as “did not effectively permeate cells or the mitochondria”.

Turning to `CC(C)C[C@@H](/C=C/[C@H](Cc1ccccc1)C(=O)NC1=NCCC(C)S1)NC(=O)OC(C)(C)C` (stereo partly drawn) [XJB-5-234, Boc-Leu-[ψ(E)-CH═CH]-^DPhe-AMT], the “fmole/10 μM mitochondrial protein” value in the data set with mitochondrial membrane was 1.45 fmole/10 μM mitochondrial protein.

(Values after patent US9890192B2, “Targeted nitroxide agents” (University of Pittsburgh—of the Commonwealth System of …, priority 2008, dated 2018).)
